The test system of this assay is soil urease. The assay is described as follows: Soil urease inhibition efficacy test (urea remaining after incubation in soil). The note with it: 40 micrograms per gram soil, incubated at 25° C. for three days, run in triplicate. Format: biochemical. The procedure:
Efficacy tests were conducted to evaluate the efficacy of certain representative oxidized sulfur derivatives of diaminophosphinyl compounds as urease inhibitors. The inhibition tests were run in New York (Cazenovia Silt loam, pH 7.3) and Wisconsin (Plano silt loam pH 5.3) soils. Evaluations (run in triplicate) consisted of applying 800 micrograms of the test compound in 5 mL of water and 42.8 mg of urea in 1 mL of water to 20 g of air-dry soil in a glass bottle. The bottle was capped with perforated aluminum foil and incubated at 25° C. for three days prior to extraction with 100 mL of a 2M potassium chloride solution containing 0.5 mg of phenylmercuric acetate. The extracts were then analyzed for remaining urea using an autoanalyzer. Percent inhibition was calculated as [formula] where A is urea recovered from unincubated sample (urea added to soil and immediately extracted); B is urea recovered from inhibited sample; and C is urea recovered from the control (uninhibited sample).

Where [1] appears, read: Cazenovia silt loam (New York) pH 7.3.
The mark [2] stands for this setting: Wisconsin (Plano silt loam) pH 5.3.

On to `Cc1ccc(S(=O)(=O)NP(N)(N)=O)cc1` [N-(Diaminophosphinyl)-p-toluene-sulfonamide], for which the “% Inhibition” value was 86% under setting [1] and 51% under setting [2].

For the compound `NP(N)(=O)NS(=O)(=O)c1ccccc1` [N-(Diaminophosphinyl)benzenesulfonamide], the “% Inhibition” value under setting [1] is given as 91% and the “% Inhibition” value under setting [2] is 23%.

One may read the % Inhibition as the relative decrease from the control value, in per cent. Read a high % Inhibition as strong suppression.

The values are drawn from US4629491A, “Oxidized sulfur derivatives of diaminophosphinyl compounds as urease inhibitors and urease inhibited urea based fertilizer compositions” (Allied Corporation, priority 1983, dated 1986).
